Laboratory results: patent US20080009418A1, “Selective Inhibitors” (Alchemia LTD., priority 2004, published 2008)

Legend:
Details in all cases: compound at 10 μM
Mouse urotensin (mUR2) = molecular target: T1, Mouse urotensin (mUR2) (Mus musculus, UniProt Q8VIH9); assay: Radioligand binding, mouse urotensin mUR2 membranes, FlashPlate, [125I]-Urotensin II
T1 construct: purchased Perkin Elmer Biosignal
T1 sequence (Q8VIH9 1-385): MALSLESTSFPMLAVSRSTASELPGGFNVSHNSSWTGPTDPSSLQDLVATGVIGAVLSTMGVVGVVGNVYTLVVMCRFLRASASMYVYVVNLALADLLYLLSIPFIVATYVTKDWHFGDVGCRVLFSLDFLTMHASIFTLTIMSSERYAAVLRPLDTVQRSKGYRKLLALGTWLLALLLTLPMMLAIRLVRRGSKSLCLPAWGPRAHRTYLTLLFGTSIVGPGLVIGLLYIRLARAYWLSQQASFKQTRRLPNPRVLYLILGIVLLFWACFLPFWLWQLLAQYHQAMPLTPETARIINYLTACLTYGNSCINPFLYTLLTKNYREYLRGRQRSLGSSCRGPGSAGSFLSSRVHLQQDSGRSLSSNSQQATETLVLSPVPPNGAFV
Method in brief: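 Cloned mouse urotensin (mUR2) receptor membranes from Perkin Elmer Biosignal were immobilized in FlashPlate microplates using a proprietary coating. Each well got 19.5 μl buffer, then 0.5 μl of DMSO, reference ligand, or compound. Adding 5 μl of [125I]-Urotensin II, diluted to 5× final concentration in binding buffer, started binding. Plates were sealed with TopSeal-A and incubated 1 hour at room temperature in the dark. Wells were counted for 30 seconds each on a TopCount after a 60-second delay, and percentage inhibition was calculated.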

[1] = molecular target: T2, Human melanin-concentrating hormone (MCH1) (Homo sapiens, UniProt Q99705); assay: Radioligand binding, human melanin-concentrating hormone MCH1 membranes, FlashPlate, [125I]-S36057
T2 construct: purchased Perkin Elmer Biosignal
T2 sequence (Q99705 whole entry): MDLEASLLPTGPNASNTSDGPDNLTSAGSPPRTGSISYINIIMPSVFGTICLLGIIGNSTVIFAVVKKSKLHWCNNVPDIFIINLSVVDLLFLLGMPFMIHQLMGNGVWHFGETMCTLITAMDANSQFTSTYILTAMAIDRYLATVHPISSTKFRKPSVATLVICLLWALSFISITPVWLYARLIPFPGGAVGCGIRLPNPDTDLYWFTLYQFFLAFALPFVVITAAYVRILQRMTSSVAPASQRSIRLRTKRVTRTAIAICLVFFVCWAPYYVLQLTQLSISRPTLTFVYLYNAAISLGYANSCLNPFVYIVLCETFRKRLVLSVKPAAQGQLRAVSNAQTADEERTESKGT
Method in brief: (§1)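 Cloned human receptor membranes were coated onto FlashPlate wells and incubated with radioligand and compound (added from a 0.5 mM DMSO daughter plate) for 1 hour at room temperature in the dark. Scintillation counting gave percent inhibition, with DMSO defining total and reference ligand defining non-specific binding.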

Human melanocortin (MC5) = molecular target: T3, Human melanocortin (MC5) (Homo sapiens, UniProt P33032); assay: Radioligand binding, human melanocortin MC5 membranes, FlashPlate, [125I]-NDP-αMSH
T3 construct: purchased Perkin Elmer Biosignal
T3 sequence (P33032 whole entry): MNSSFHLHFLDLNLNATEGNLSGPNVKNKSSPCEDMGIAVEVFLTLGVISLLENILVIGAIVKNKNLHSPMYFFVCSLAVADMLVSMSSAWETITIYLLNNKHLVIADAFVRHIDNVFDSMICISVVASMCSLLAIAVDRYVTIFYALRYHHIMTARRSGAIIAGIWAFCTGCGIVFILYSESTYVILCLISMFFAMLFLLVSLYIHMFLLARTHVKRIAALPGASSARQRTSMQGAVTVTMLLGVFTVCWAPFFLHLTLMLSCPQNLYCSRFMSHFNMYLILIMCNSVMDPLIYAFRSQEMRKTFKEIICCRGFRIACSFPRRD
Method in brief: as §1

Human κ-Opioid (KOP) = molecular target: T4, Human κ-Opioid (KOP) (Homo sapiens, UniProt P41145); assay: Radioligand binding, human κ-opioid (KOP) membranes, filtration, [3H]-Diprenorphine
T4 construct: purchased Perkin Elmer Biosignal
T4 sequence (P41145 whole entry): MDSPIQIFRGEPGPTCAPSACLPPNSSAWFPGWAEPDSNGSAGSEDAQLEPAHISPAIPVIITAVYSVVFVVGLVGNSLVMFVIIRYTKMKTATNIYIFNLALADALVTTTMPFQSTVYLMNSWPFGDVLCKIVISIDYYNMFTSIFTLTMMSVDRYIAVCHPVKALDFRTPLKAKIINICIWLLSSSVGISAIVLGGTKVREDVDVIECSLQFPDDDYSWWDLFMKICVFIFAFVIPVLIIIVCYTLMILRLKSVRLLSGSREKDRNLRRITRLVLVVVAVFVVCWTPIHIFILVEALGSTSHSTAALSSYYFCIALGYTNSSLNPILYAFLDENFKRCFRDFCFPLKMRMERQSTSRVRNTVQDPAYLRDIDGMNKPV
Method in brief: (§2)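 Membranes from cloned human receptors were incubated with compound and radioligand for 1 hour at room temperature. Bound ligand was collected on 0.3% PEI-soaked filters, washed with cold 50 mM Tris-HCl pH 7.4, and counted by scintillation. Percent inhibition was computed against DMSO totals and reference-ligand nonspecific wells.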

[2] = molecular target: T5, Human neuropeptide Y (NPY-Y1) (Homo sapiens, UniProt P25929); assay: Radioligand binding, human neuropeptide Y NPY-Y1 membranes, FlashPlate, [125I]-PYY
T5 construct: purchased Perkin Elmer Biosignal
T5 sequence (P25929 1-384): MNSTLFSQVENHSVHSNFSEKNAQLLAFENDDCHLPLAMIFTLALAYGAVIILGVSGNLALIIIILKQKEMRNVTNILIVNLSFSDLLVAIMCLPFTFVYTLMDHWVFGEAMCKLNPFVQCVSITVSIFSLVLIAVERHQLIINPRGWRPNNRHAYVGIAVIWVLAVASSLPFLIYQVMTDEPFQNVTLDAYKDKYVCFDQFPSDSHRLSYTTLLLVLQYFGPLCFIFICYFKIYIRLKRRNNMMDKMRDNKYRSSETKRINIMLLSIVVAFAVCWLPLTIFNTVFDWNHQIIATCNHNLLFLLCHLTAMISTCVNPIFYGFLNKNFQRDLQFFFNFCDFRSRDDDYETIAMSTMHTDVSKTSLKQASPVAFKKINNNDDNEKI
Method in brief: as §1

Human μ-opioid (MOP) = molecular target: T6, Human μ-opioid (MOP) (Homo sapiens, UniProt P35372); assay: Radioligand binding, human μ-opioid (MOP) membranes, FlashPlate, [3H]-Naloxone
T6 construct: purchased Perkin Elmer Biosignal
T6 sequence (P35372 whole entry): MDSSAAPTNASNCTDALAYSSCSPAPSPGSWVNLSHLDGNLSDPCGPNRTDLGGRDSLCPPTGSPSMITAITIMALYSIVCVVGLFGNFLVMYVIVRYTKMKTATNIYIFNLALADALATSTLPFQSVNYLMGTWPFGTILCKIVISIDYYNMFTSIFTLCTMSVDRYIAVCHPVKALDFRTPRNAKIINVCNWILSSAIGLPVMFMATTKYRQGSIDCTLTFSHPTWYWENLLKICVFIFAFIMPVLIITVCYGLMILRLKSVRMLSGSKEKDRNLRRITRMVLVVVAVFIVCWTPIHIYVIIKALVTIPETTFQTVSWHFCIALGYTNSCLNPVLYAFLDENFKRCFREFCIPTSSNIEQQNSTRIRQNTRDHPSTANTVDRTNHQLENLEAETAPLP
Method in brief: as §1

Human δ-opioid (DOP) = molecular target: T7, Human δ-opioid (DOP) (Homo sapiens, UniProt P41143); assay: Radioligand binding, human δ-opioid (DOP) membranes, FlashPlate, [3H]-Bremazocine
T7 construct: purchased Perkin Elmer Biosignal
T7 sequence (P41143 whole entry): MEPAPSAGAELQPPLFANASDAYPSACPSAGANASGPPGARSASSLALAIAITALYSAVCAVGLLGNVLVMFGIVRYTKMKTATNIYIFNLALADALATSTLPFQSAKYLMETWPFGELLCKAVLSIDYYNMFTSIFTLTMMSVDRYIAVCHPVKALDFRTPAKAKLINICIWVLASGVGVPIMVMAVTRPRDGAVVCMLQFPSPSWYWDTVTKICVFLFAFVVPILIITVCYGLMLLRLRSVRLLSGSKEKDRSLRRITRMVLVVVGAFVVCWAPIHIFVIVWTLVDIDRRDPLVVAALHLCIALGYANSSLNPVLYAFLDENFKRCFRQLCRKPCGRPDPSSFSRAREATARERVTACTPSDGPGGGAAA
Method in brief: as §1

Human neurokinin (NK1) = molecular target: T8, Human neurokinin (NK1) (Homo sapiens, UniProt P25103); assay: Radioligand binding, human neurokinin NK1 membranes, filtration, [125I]-Substance P
T8 construct: purchased Perkin Elmer Biosignal
T8 sequence (P25103 whole entry): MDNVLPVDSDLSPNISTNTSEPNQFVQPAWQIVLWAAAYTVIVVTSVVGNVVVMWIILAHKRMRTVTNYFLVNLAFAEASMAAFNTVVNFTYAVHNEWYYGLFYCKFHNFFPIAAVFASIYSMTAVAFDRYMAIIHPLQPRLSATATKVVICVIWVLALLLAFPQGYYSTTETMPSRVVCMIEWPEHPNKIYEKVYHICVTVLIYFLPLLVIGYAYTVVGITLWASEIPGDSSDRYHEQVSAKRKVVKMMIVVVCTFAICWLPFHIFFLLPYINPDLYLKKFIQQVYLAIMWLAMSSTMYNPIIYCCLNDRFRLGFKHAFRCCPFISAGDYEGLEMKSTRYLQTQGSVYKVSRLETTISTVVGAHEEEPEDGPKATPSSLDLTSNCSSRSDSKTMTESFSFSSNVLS
Method in brief: as §2

Human Melanocortin (MC3) = molecular target: T9, Human Melanocortin (MC3) (Homo sapiens, UniProt P41968); assay: Radioligand binding, human melanocortin MC3 membranes, FlashPlate, [125I]-NDP-αMSH
T9 construct: purchased Perkin Elmer Biosignal
T9 sequence (P41968 whole entry): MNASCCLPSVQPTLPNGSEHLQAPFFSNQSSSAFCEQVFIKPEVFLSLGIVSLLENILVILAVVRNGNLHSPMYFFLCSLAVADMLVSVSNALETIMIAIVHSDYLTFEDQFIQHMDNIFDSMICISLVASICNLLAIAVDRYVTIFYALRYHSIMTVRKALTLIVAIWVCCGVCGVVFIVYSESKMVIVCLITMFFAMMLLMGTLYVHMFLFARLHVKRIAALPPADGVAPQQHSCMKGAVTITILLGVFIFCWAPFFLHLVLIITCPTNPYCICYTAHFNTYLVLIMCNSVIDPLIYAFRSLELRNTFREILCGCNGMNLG
Method in brief: as §1

Human opioid (ORL1) = molecular target: T10, Human opioid (ORL1) (Homo sapiens, UniProt P41146); assay: Radioligand binding, human opioid ORL1 membranes, FlashPlate, [125I]-Nociceptin
T10 construct: purchased Perkin Elmer Biosignal
T10 sequence (P41146 whole entry): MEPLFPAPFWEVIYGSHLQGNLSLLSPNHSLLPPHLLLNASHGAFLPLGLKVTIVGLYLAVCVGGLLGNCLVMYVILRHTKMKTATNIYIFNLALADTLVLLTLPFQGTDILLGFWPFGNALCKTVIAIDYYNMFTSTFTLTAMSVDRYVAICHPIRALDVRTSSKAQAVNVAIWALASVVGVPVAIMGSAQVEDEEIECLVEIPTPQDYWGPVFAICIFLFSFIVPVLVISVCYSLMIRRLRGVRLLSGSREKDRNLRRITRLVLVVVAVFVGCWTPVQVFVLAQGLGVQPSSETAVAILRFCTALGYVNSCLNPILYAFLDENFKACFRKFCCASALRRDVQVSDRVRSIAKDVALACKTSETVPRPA
Method in brief: as §1

Human Melanocortin (MC4) = molecular target: T11, Human Melanocortin (MC4) (Homo sapiens, UniProt P32245); assay: Radioligand binding, human melanocortin MC4 membranes, FlashPlate, [125I]-NDP-αMSH
T11 construct: purchased Perkin Elmer Biosignal
T11 sequence (P32245 whole entry): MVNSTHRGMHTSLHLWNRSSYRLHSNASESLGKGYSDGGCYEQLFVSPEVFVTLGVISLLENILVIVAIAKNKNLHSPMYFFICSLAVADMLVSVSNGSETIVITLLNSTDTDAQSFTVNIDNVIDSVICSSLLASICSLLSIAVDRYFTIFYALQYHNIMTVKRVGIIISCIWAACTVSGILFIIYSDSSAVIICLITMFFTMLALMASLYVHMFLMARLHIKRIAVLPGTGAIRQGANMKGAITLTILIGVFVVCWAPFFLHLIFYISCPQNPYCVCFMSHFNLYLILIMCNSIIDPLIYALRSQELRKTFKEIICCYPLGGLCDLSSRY
Method in brief: as §1

## CO[C@H]1[C@H](O)[C@@H](COCc2ccccc2)OC(OCCc2ccccc2)[C@@H]1NC(=O)CCCNC(=N)N (stereo partly shown) [compound 118]
Mouse urotensin (mUR2); [125I]-Urotensin II
  A11 radioligand binding, percentage inhibition: − (“−” indicates less than 50% inhibition at 10 μM)
[1]; [125I]-S36057
  A6 radioligand binding, percentage inhibition: − (“−” indicates less than 50% inhibition at 10 μM)
Human melanocortin (MC5); [125I]-NDP-αMSH
  A5 radioligand binding, percentage inhibition: − (“−” indicates less than 50% inhibition at 10 μM)
Human κ-Opioid (KOP); [3H]-Diprenorphine
  A2 radioligand binding, percentage inhibition: − (“−” indicates less than 50% inhibition at 10 μM)
[2]; [125I]-PYY
  A9 radioligand binding, percentage inhibition: − (“−” indicates less than 50% inhibition at 10 μM)
Human μ-opioid (MOP); [3H]-Naloxone
  A7 radioligand binding, percentage inhibition: − (“−” indicates less than 50% inhibition at 10 μM)
Human δ-opioid (DOP); [3H]-Bremazocine
  A1 radioligand binding, percentage inhibition: − (“−” indicates less than 50% inhibition at 10 μM)
Human neurokinin (NK1); [125I]-Substance P
  A8 radioligand binding, percentage inhibition: + (“+” indicates greater than 50% inhibition at 10 μM)
Human Melanocortin (MC3); [125I]-NDP-αMSH
  A3 radioligand binding, percentage inhibition: − (“−” indicates less than 50% inhibition at 10 μM)
Human opioid (ORL1); [125I]-Nociceptin
  A10 radioligand binding, percentage inhibition: − (“−” indicates less than 50% inhibition at 10 μM)
Human Melanocortin (MC4); [125I]-NDP-αMSH
  A4 radioligand binding, percentage inhibition: − (“−” indicates less than 50% inhibition at 10 μM)

## COCC1OC(OCc2ccc(Cl)cc2)C(NC(=O)CCCNC(=N)N)C(OCc2ccc3ccccc3c2)C1O (stereo not shown) [compound 213]
Mouse urotensin (mUR2); [125I]-Urotensin II, FlashPlate
  A11: inhibition of radioligand binding: − (“−” indicates less than 50% inhibition at 10 μM)
[1]; [125I]-S36057, FlashPlate
  A6: inhibition of radioligand binding: + (“+” indicates greater than 50% inhibition at 10 μM)
Human melanocortin (MC5); [125I]-NDP-αMSH, FlashPlate
  A5: inhibition of radioligand binding: + (“+” indicates greater than 50% inhibition at 10 μM)
Human κ-Opioid (KOP); [3H]-Diprenorphine, filtration
  A2: inhibition of radioligand binding: + (“+” indicates greater than 50% inhibition at 10 μM)
[2]; [125I]-PYY, FlashPlate
  A9: inhibition of radioligand binding: − (“−” indicates less than 50% inhibition at 10 μM)
Human μ-opioid (MOP); [3H]-Naloxone, FlashPlate
  A7: inhibition of radioligand binding: − (“−” indicates less than 50% inhibition at 10 μM)
Human δ-opioid (DOP); [3H]-Bremazocine, FlashPlate
  A1: inhibition of radioligand binding: − (“−” indicates less than 50% inhibition at 10 μM)
Human neurokinin (NK1); [125I]-Substance P, filtration
  A8: inhibition of radioligand binding: + (“+” indicates greater than 50% inhibition at 10 μM)
Human Melanocortin (MC3); [125I]-NDP-αMSH, FlashPlate
  A3: inhibition of radioligand binding: − (“−” indicates less than 50% inhibition at 10 μM)
Human opioid (ORL1); [125I]-Nociceptin, FlashPlate
  A10: inhibition of radioligand binding: + (“+” indicates greater than 50% inhibition at 10 μM)
Human Melanocortin (MC4); [125I]-NDP-αMSH, FlashPlate
  A4: inhibition of radioligand binding: + (“+” indicates greater than 50% inhibition at 10 μM)

## COC[C@H]1OC(OCc2ccccc2)[C@H](NC(=O)CNC(=N)N)[C@@H](OCc2ccc(-c3ccccc3)cc2)[C@@H]1O (stereo partly shown) [compound 23]
Mouse urotensin (mUR2); mouse urotensin mUR2 membranes
  A11 radioligand binding inhibition: − (“−” indicates less than 50% inhibition at 10 μM)
[1]; human MCH1 membranes
  A6 radioligand binding inhibition: + (“+” indicates greater than 50% inhibition at 10 μM)
Human melanocortin (MC5); human melanocortin MC5 membranes
  A5 radioligand binding inhibition: + (“+” indicates greater than 50% inhibition at 10 μM)
Human κ-Opioid (KOP); human κ-opioid (KOP) membranes
  A2 radioligand binding inhibition: − (“−” indicates less than 50% inhibition at 10 μM)
[2]; human NPY-Y1 membranes
  A9 radioligand binding inhibition: − (“−” indicates less than 50% inhibition at 10 μM)
Human μ-opioid (MOP); human μ-opioid (MOP) membranes
  A7 radioligand binding inhibition: − (“−” indicates less than 50% inhibition at 10 μM)
Human δ-opioid (DOP); human δ-opioid (DOP) membranes
  A1 radioligand binding inhibition: − (“−” indicates less than 50% inhibition at 10 μM)
Human neurokinin (NK1); human neurokinin NK1 membranes
  A8 radioligand binding inhibition: + (“+” indicates greater than 50% inhibition at 10 μM)
Human Melanocortin (MC3); human melanocortin MC3 membranes
  A3 radioligand binding inhibition: − (“−” indicates less than 50% inhibition at 10 μM)
Human opioid (ORL1); human ORL1 membranes
  A10 radioligand binding inhibition: − (“−” indicates less than 50% inhibition at 10 μM)
Human Melanocortin (MC4); human melanocortin MC4 membranes
  A4 radioligand binding inhibition: − (“−” indicates less than 50% inhibition at 10 μM)

## NCCCC(=O)NC1C(OCc2ccc(Cl)cc2)OC(COCc2ccc3ccccc3c2)C(O)C1OCc1ccc2ccccc2c1 (single isomer, unassigned) [compound 495]
Mouse urotensin (mUR2); [125I]-Urotensin II
  A11: inhibition of radioligand binding, mouse urotensin (mUR2): − (“−” indicates less than 50% inhibition at 10 μM)
[1]; [125I]-S36057
  A6: inhibition of radioligand binding, human melanin-concentrating hormone (MCH1): + (“+” indicates greater than 50% inhibition at 10 μM)
Human melanocortin (MC5); [125I]-NDP-αMSH
  A5: inhibition of radioligand binding, human melanocortin (MC5): + (“+” indicates greater than 50% inhibition at 10 μM)
Human κ-Opioid (KOP); [3H]-Diprenorphine
  A2: inhibition of radioligand binding, human κ-opioid (KOP): − (“−” indicates less than 50% inhibition at 10 μM)
[2]; [125I]-PYY
  A9: inhibition of radioligand binding, human neuropeptide Y (NPY-Y1): − (“−” indicates less than 50% inhibition at 10 μM)
Human μ-opioid (MOP); [3H]-Naloxone
  A7: inhibition of radioligand binding, human μ-opioid (MOP): + (“+” indicates greater than 50% inhibition at 10 μM)
Human δ-opioid (DOP); [3H]-Bremazocine
  A1: inhibition of radioligand binding, human δ-opioid (DOP): − (“−” indicates less than 50% inhibition at 10 μM)
Human neurokinin (NK1); [125I]-Substance P
  A8: inhibition of radioligand binding, human neurokinin (NK1): + (“+” indicates greater than 50% inhibition at 10 μM)
Human Melanocortin (MC3); [125I]-NDP-αMSH
  A3: inhibition of radioligand binding, human melanocortin (MC3): + (“+” indicates greater than 50% inhibition at 10 μM)
Human opioid (ORL1); [125I]-Nociceptin
  A10: inhibition of radioligand binding, human opioid (ORL1): + (“+” indicates greater than 50% inhibition at 10 μM)
Human Melanocortin (MC4); [125I]-NDP-αMSH
  A4: inhibition of radioligand binding, human melanocortin (MC4): + (“+” indicates greater than 50% inhibition at 10 μM)

## CO[C@H]1[C@H](O)[C@@H](COCc2ccc(Cl)cc2)OC(OCc2ccc(Cl)cc2)[C@@H]1NC(=O)CCCNC(=N)N (stereo partly shown) [compound 108]
Mouse urotensin (mUR2); [125I]-Urotensin II
  A11 radioligand binding, percentage inhibition: − (“−” indicates less than 50% inhibition at 10 μM)
[1]; [125I]-S36057
  A6 radioligand binding, percentage inhibition: − (“−” indicates less than 50% inhibition at 10 μM)
Human melanocortin (MC5); [125I]-NDP-αMSH
  A5 radioligand binding, percentage inhibition: + (“+” indicates greater than 50% inhibition at 10 μM)
Human κ-Opioid (KOP); [3H]-Diprenorphine
  A2 radioligand binding, percentage inhibition: − (“−” indicates less than 50% inhibition at 10 μM)
[2]; [125I]-PYY
  A9 radioligand binding, percentage inhibition: − (“−” indicates less than 50% inhibition at 10 μM)
Human μ-opioid (MOP); [3H]-Naloxone
  A7 radioligand binding, percentage inhibition: − (“−” indicates less than 50% inhibition at 10 μM)
Human δ-opioid (DOP); [3H]-Bremazocine
  A1 radioligand binding, percentage inhibition: − (“−” indicates less than 50% inhibition at 10 μM)
Human neurokinin (NK1); [125I]-Substance P
  A8 radioligand binding, percentage inhibition: + (“+” indicates greater than 50% inhibition at 10 μM)
Human Melanocortin (MC3); [125I]-NDP-αMSH
  A3 radioligand binding, percentage inhibition: + (“+” indicates greater than 50% inhibition at 10 μM)
Human opioid (ORL1); [125I]-Nociceptin
  A10 radioligand binding, percentage inhibition: − (“−” indicates less than 50% inhibition at 10 μM)
Human Melanocortin (MC4); [125I]-NDP-αMSH
  A4 radioligand binding, percentage inhibition: + (“+” indicates greater than 50% inhibition at 10 μM)
